Experimental data published in patent publication US8263601B2, “Deuterium substituted xanthine derivatives” (CoNCERT Pharmaceuticals, Inc., priority 2009, dated 2012).
Where two headings read alike, the source gives them in different places.

Tests used:
[1] = parameters: species or system beagle dogs; settings: dog, in vivo, po
Experimental: Example 34a was repeated with additional monitoring of the pentoxifylline and Compound 409 metabolites. In this experiment Compound 409 and pentoxifylline were dissolved separately in saline to a concentration of 4.4 and 4 mg/mL respectively. A 1:1 (v/v) mixture of the two solutions was prepared to yield a solution having a final concentration of 2.2 mg/mL of Compound 409 and 2 mg/mL pentoxifylline. Post-dosing data analysis included adjustments to account for the 10% difference in dosing concentration between compound 409 and pentoxifylline.
Four beagle dogs (2-3 years of age, and weighed 5 to 8 kg) were fasted overnight and then orally dosed via gavage with 2.75 mg/kg Compound 409 and 2.5 mg/kg pentoxifylline using the mixture described above. Blood samples (approximately 1 mL) were collected via femoral vein at 0 min (pre-dose), 5 min, 15 min, 30 min, 45 min, 1 hr, 1.5 hr, 2 hr, 3 hr, 4 hr, and 6 hr post-dose. Blood was stored on ice prior to centrifugation to obtain plasma samples. Centrifugation took place within 15 minutes of blood collection to harvest plasma (maximum volume). The plasma was decanted immediately and frozen/stored at −20° C. until analysis.
Plasma samples were analyzed by LC-MS/MS for the presence of the administered compound and its corresponding M1 metabolite:
The results from one of the four dogs (Dog H, FIG. 1b) were inconsistent with that of the other three. […] It was concluded that this dog was most likely improperly gavaged and that the compounds were probably administered through the trachea, rather than into the GI tract as would have been desired. Accordingly, the data from this dog was excluded from the analyses.

[2] = Stability of compounds in rat whole blood (Example 35); assay type: in vitro ADME; settings: 5 μM, 37° C.; for Keto-compound (pentoxifylline or Compound 409) formed from M-1 alcohol: 2 hours, FIG. 3
Experimental: This study was performed to evaluate the stability of the title compounds in rat whole blood. Because the ketone (or keto-compound; either pentoxifylline or 409) and its corresponding M-1 alcohol metabolite interconvert, levels of these components were measured after either the keto-compound was added to the blood or the M-1 was added. In other words, in some tests the keto-compound was the starting test compound and in other tests an M-1 metabolite was the starting test compound.
Fresh rat whole blood was obtained from ViviSource Laboratories, Waltham, Mass. Stock solutions (7.5 millimolar (mM)) of test compounds were prepared in dimethyl sulfoxide (DMSO). The 7.5 mM stock solutions were diluted to 500 micromolar (μM) in acetonitrile (ACN). To 990 microliters (μL) of blood pre-warmed to 37° C. for 7 minutes was added 10 μl, of 500 μM test compound to a final concentration of 5 μM. The test compounds were pentoxifylline, (S)-M1 metabolite of pentoxifylline, (R)-M1 metabolite of pentoxifylline, Compound 409, Compound 435(S), and Compound 435(R). The latter two test compounds are deuterated (S)-M1 and (R)-M1 metabolites, respectively, of Compound 409. The reaction mixture was incubated at 37° C. Aliquots (50 μL) were removed at 0 min, 5 min, 15 min, 30 min, 1 hour and 2 hours following the addition of test compound and added to 96-well plates containing 150 μL of ice cold acetonitrile with an internal standard to stop the reaction. The plates were stored at −20° C. for 20 minutes after which 100 μL of 50% acetonitrile/water was added to the wells of the plate prior to centrifugation to pellet precipitated proteins. A 200-μL aliquot of each supernatant was transferred to another 96-well plate and analyzed by LC-MS/MS using an Applied Bio-systems API 4000 mass spectrometer for amounts of the administered compound and its specific metabolite listed in Table 11 below.
The results of this study are depicted in FIGS. 2 and 3.

[3] = Compound stability in human liver microsomes (Example 36); assay type: in vitro ADME; settings: human liver microsomes 2.0 mg/mL, 5 μM, NADPH, 30 minutes, FIG. 5 columns A and B
Experimental: Example 36 is similar to Example 35 in design, except that human liver microsomes were used instead of rat whole blood to study the metabolism of the compounds.
Human liver microsomes (20 mg/mL) were obtained from Xenotech, LLC (Lenexa, Kans.). β-nicotinamide adenine dinucleotide phosphate, reduced form (NADPH), magnesium chloride (MgCl2), and dimethyl sulfoxide (DMSO) were purchased from Sigma-Aldrich.
Stock solutions containing 7.5 mM of test compounds (pentoxifylline, (S)-M1 metabolite, (R)-M1 metabolite, Compound 409, Compound 435(S), and Compound 435(R)) were prepared in DMSO. The 7.5-mM stock solutions were diluted to 250 μM in acetonitrile (ACN). The human liver microsomes were diluted to 2.5 mg/mL in 0.1 M potassium phosphate buffer, pH 7.4, containing 3 mM MgCl2. The diluted microsomes were added to wells of a 96-well deep-well polypropylene plate in triplicate. 10 μL of the 250 μM test compound was added to the microsomes and the mixture was pre-warmed to 37° C. for 10 minutes. Reactions were initiated by addition of pre-warmed NADPH solution. The final reaction volume was 0.5 mL and contained 2.0 mg/mL human liver microsomes, 5 μM test compound, and 2 mM NADPH in 0.1M potassium phosphate buffer, pH 7.4, and 3 mM MgCl2. The reaction mixtures were incubated at 37° C., and 50-μL aliquots were removed at 0, 5, 10, 20, and 30 minutes and added to shallow-well 96-well plates which contained 50 μL of ice-cold acetonitrile with internal standard to stop the reactions. The plates were stored at 4° C. for 20 minutes after which 100 μL of water was added to the wells of the plate before centrifugation to pellet precipitated proteins. Supernatants were transferred to another 96-well plate and analyzed for the amount of the administered compound and its specific metabolite (listed in Table 11 above) by LC-MS/MS using an Applied Bio-systems API 4000 mass spectrometer.
The results of this study are depicted in FIGS. 4 and 5. […]

in vivo = assay: in vivo; parameters: species or system male beagle dogs; settings: male, beagle, dog, po
Experimental: Metabolism of the title compounds were studied following oral administration to male beagle dogs. Blood samples were removed from dosed dogs at various time points and plasma isolated therefrom. The plasma samples were used for the determination of plasma drug levels by LC-MS/MS (liquid chromatography with tandem mass spectrometry) for estimating pharmacokinetic parameters.
Compound 409 and pentoxifylline were dissolved separately in saline to a concentration of 4 mg/mL. A 1:1 (v/v) mixture of the two solutions was prepared to yield a solution having a final concentration of 2 mg/mL of both Compound 409 and pentoxifylline.
Two male beagle dogs were fasted overnight and then orally dosed via gavage with 2.5 mg/kg of Compound 409 and pentoxifylline using the mixture described above. Blood samples (1.5-2 mL) were collected via the femoral vein at 0 min (pre-dose), 15 min, 30 min, 45 min, 1 hr, 1.5 hr, 2 hr, 3 hr, 4 hr, 6 hr, 8 hr, 10 hr, 12 hr, 16 hr and 24 hr post-dose. Blood was stored on ice prior to centrifugation to obtain plasma samples. Centrifugation took place within 1 hour of blood collection to harvest plasma (maximum volume). The plasma was decanted immediately and frozen/stored at −70° C. until analysis.

[4] = parameters: species or system male beagle dogs; settings: male, beagle, dog, in vivo, po
Experimental: This study was similar to those described in Examples 34a and 34b, except that Compound 413 was evaluated. Four male beagle dogs were orally dosed by gavage with a mixture containing 2 mg/mL each of pentoxifylline and Compound 413 in saline. Blood samples were taken as in Example 34b.

## [2H]c1nc2c(c(=O)n(CCCC([2H])([2H])C(O)C([2H])([2H])[2H])c(=O)n2C)n1C([2H])([2H])[2H] (racemic) [Compound 419, (±)-8-d1-1-(4,4,6,6,6-d5-5-Hydroxyhexyl)-3-methyl-7-(methyl-d3)-1H-purine-2,6(3H,7H)-dione]
[1]
  Overall systemic exposure to M1 metabolite compared to M1 following dosing of pentoxifylline: greater

## C[C@@H](O)CCCCn1c(=O)c2c(ncn2C)n(C)c1=O [(R)-M1, reference compound]
[2]
  Keto-compound (pentoxifylline or Compound 409) formed from M-1 alcohol: No metabolism of (R)-M1 to pentoxifylline was detected

## [2H]c1nc2c(c(=O)n(CCCC([2H])([2H])C(=O)C([2H])([2H])[2H])c(=O)n2C)n1C([2H])([2H])[2H] [Compound 409, 8-d1-3-methyl-7-(methyl-d3)-1-(6-d3-4-d2-5-oxohexyl)-1H-purine-2,6(3H,7H)-dione]
[1]; beagle
  % Difference in Ave. AUC (deuterated vs nondeuterated species): +97%
  % Difference in Ave. Cmax (deuterated vs nondeuterated species): +80%
[1]
  Clearance from the plasma compared to pentoxifylline: more slowly cleared
[3]
  Amount of (S)-M1 type metabolite (Compound 419(S)) formed from keto-compound, compared to (S)-M1 formed from pentoxifylline: similar
In vivo
  % Difference in Ave. AUC (deuterated vs nondeuterated species): +80%
  % Difference in Ave. Cmax (deuterated vs nondeuterated species): +57%
In vivo; 2.5 mg/kg
  AUC: 811 ng·h/mL
  Cmax: 1230 ng/mL
[2]; approximately 2 hours, FIG. 3 columns A and B
  Amount of (S)-M1 type metabolite (Compound 419(S)) formed from keto-compound, compared to (S)-M1 formed from pentoxifylline: similar

## [2H]c1nc2c(c(=O)n(CCCC([2H])([2H])C(=O)C([2H])([2H])[2H])c(=O)n2C([2H])([2H])[2H])n1C([2H])([2H])[2H] [Compound 413, 8-d1-3,7-Di(methyl-d3)-1-(4,4,6,6,6-d5-5-oxohexyl)-1H-purine-2,6(3H,7H)-dione]
[4]
  % Difference in Ave. AUC (deuterated vs nondeuterated species): +74%
  % Difference in Ave. Cmax (deuterated vs nondeuterated species): +47%

## [2H]c1nc2c(c(=O)n(CCCC([2H])([2H])[C@]([2H])(O)C([2H])([2H])[2H])c(=O)n2C)n1C([2H])([2H])[2H] [Compound 435(R), (R)-8-d1-1-(4,4,5,6,6,6-d6-5-Hydroxyhexyl)-3-methyl-7-(methyl-d3)-1H-purine-2,6(3H,7H)-dione]
[2]
  Keto-compound (pentoxifylline or Compound 409) formed from M-1 alcohol: not detected
